# Earlier results in US20120134921A1, “SOLID COMPOSITIONS COMPRISING 5-AMINOLEVULINIC ACID” (Photocure ASA, priority 2009, published 2012).
# How the values were obtained:
# [1] = tested on: dysplastic lesions; details: sterile solution administered as local probe, chronic colitis rat models
# [2] = tested on: pre-malignant conditions in the colon; details: enemas, 5-ALA hexyl ester in sterile phosphate buffered saline
compound,measurement,setting,value
"CCCCCCOC(=O)CCC(=O)CN [5-ALA hexyl ester, n-hexyl aminolevulinic acid ester]",Sensitivity of detection of dysplastic lesions by fluorescence,[1],60%
same,Specificity of detection of dysplastic lesions by fluorescence,[1],51%
same,More polyps detected by PDD than with white light endoscopic imaging,[2],28%
